{
  "source": "the supplement of paper PMC10290057",
  "key": {"HCT116 [1]": {"system": "HCT116", "assay": "AC50 cell viability (CellTiter-Glo); higher = less potent", "conditions": "48 h"}, "HCT116 [2]": {"system": "HCT116", "assay": "efficacy (fitted maximal change in viability relative to DMSO control); higher = less cytotoxic (negative = loss of viability)", "conditions": "48 h"}},
  "note": "Where a name gives a salt, the structure may show the parent alone.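 Throughout, for AC50 cell viability (CellTiter-Glo): HCT116 colorectal carcinoma cells screened at five concentrations per compound, luminescent viability scaled between DMSO wells and empty wells on each plate, curves fitted per compound.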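 Throughout, for efficacy (fitted maximal change in viability relative to DMSO control): Luminescence-based viability readout, five doses per compound, normalized against on-plate DMSO and empty-well controls, followed by dose-response curve fitting for every drug.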",
  "data": [
    {"smiles": "OC1=CC=C(C=C1)C/2=C/C3=C(OC2)C=C(O)C=C3", "note": "[Idronoxil]", "values": [
      {"measurement": "AC50 cell viability", "setting": "HCT116 [1]", "value": 3720, "unit": "nM"},
      {"measurement": "efficacy", "setting": "HCT116 [2]", "value": -73.9, "unit": "%"}
    ]},
    {"smiles": "Cc1cnc(Nc2cccc(CN3CCOCC3)c2)nc1Nc1cccc([S+](=O)([O-])NC(C)(C)C)c1", "note": "[TG-89]", "values": [
      {"measurement": "AC50 cell viability", "setting": "HCT116 [1]", "value": 1660, "unit": "nM"},
      {"measurement": "efficacy", "setting": "HCT116 [2]", "value": -35.5, "unit": "%"}
    ]},
    {"smiles": "Cc1cc(C(=O)Nc2cc(Oc3ccc4nc(NC(=O)C5CC5)cn4n3)ccc2C)n(C)n1", "note": "[TAK-593]", "values": [
      {"measurement": "AC50 cell viability", "setting": "HCT116 [1]", "value": 14800, "unit": "nM"},
      {"measurement": "efficacy", "setting": "HCT116 [2]", "value": -56.7, "unit": "%"}
    ]},
    {"smiles": "Cc1nc(NC(=O)N2CCC[C@H]2C(N)=O)sc1-c1csc(C(C)(C)C)n1", "note": "[A-66]", "values": [
      {"measurement": "AC50 cell viability", "setting": "HCT116 [1]", "value": 1860, "unit": "nM"},
      {"measurement": "efficacy", "setting": "HCT116 [2]", "value": -33, "unit": "%"}
    ]},
    {"smiles": "Cc1cc(-c2nc3cc(F)ccc3s2)ccc1NC(=O)[C@@H](N)CCCCN", "values": [
      {"measurement": "AC50 cell viability", "setting": "HCT116 [1]", "value": 7420, "unit": "nM"},
      {"measurement": "efficacy", "setting": "HCT116 [2]", "value": -93.6, "unit": "%"}
    ]},
    {"smiles": "CC1=C(C)C\\2=C(S1)[N]3C(=NN=C3[C@H](CC(N)=O)\\N=C2C4=CC=C(Cl)C=C4)C", "note": "[CPI-203]", "values": [
      {"measurement": "AC50 cell viability", "setting": "HCT116 [1]", "value": 372, "unit": "nM"},
      {"measurement": "efficacy", "setting": "HCT116 [2]", "value": -58.5, "unit": "%"}
    ]},
    {"smiles": "C/C1=C/C[C@@H](/C(C)=C/c2csc(C)n2)OC(=O)C[C@H](O)C(C)(C)C(=O)[C@H](C)[C@@H](O)[C@@H](C)CCC1", "note": "[Epothilone D]", "values": [
      {"measurement": "AC50 cell viability", "setting": "HCT116 [1]", "value": 16.6, "unit": "nM"},
      {"measurement": "efficacy", "setting": "HCT116 [2]", "value": -60.3, "unit": "%"}
    ]},
    {"smiles": "Cc1cc2c(C(N)=O)cccc2n1-c1nc2c(c(NCc3ccccc3)n1)COCC2", "note": "[CB-5083]", "values": [
      {"measurement": "AC50 cell viability", "setting": "HCT116 [1]", "value": 833, "unit": "nM"},
      {"measurement": "efficacy", "setting": "HCT116 [2]", "value": -88.7, "unit": "%"}
    ]},
    {"smiles": "C[C@@H]1O[C@@H](O[C@H]2C[C@@H](O)[C@]3(CO)[C@H]4[C@H](O)C[C@]5(C)[C@H](CC[C@]5(O)[C@@H]4CC[C@]3(O)C2)C/6=C/C(=O)OC6)[C@H](O)[C@H](O)[C@H]1O", "note": "[Strophantine octahydrate]", "values": [
      {"measurement": "AC50 cell viability", "setting": "HCT116 [1]", "value": 26.3, "unit": "nM"},
      {"measurement": "efficacy", "setting": "HCT116 [2]", "value": -75.8, "unit": "%"}
    ]},
    {"smiles": "CN1c2ccccc2C(=O)N2CCc3c([nH]c4ccccc34)C21", "note": "(stereo unspecified) [Evodiamine]", "values": [
      {"measurement": "AC50 cell viability", "setting": "HCT116 [1]", "value": 1660, "unit": "nM"},
      {"measurement": "efficacy", "setting": "HCT116 [2]", "value": -64.2, "unit": "%"}
    ]},
    {"smiles": "CN\\1N(C(=O)\\C(=C1C)C(=O)NC2=CC=C(OC3=CC=NC4=C3C(=C[NH]4)C5=CC=CC=C5)C(=C2)F)C6=CC=C(F)C=C6", "note": "[NPS-1034]", "values": [
      {"measurement": "AC50 cell viability", "setting": "HCT116 [1]", "value": 14800, "unit": "nM"},
      {"measurement": "efficacy", "setting": "HCT116 [2]", "value": -59.9, "unit": "%"}
    ]},
    {"smiles": "CCOc1cc2c(c(F)c1OCC)C(=N)N(CC(=O)c1cc(N3CCOCC3)c(OC)c(C(C)(C)C)c1)C2", "note": "[E5555]", "values": [
      {"measurement": "AC50 cell viability", "setting": "HCT116 [1]", "value": 7420, "unit": "nM"},
      {"measurement": "efficacy", "setting": "HCT116 [2]", "value": -77, "unit": "%"}
    ]},
    {"smiles": "c1ccc2c(CCNc3ccc(Nc4ccncc4)cc3)c[nH]c2c1", "note": "[Serdemetan]", "values": [
      {"measurement": "AC50 cell viability", "setting": "HCT116 [1]", "value": 5900, "unit": "nM"},
      {"measurement": "efficacy", "setting": "HCT116 [2]", "value": -89.6, "unit": "%"}
    ]},
    {"smiles": "CC(=O)Nc1cc(Oc2ccc3c(nc(Nc4ccc(F)cc4F)n3C)c2C)ccn1", "note": "[CHZ868]", "values": [
      {"measurement": "AC50 cell viability", "setting": "HCT116 [1]", "value": 833, "unit": "nM"},
      {"measurement": "efficacy", "setting": "HCT116 [2]", "value": -67.4, "unit": "%"}
    ]},
    {"smiles": "c1ccc2c(-c3cnn4cc(-c5ccc(N6CCNCC6)cc5)cnc34)ccnc2c1", "values": [
      {"measurement": "AC50 cell viability", "setting": "HCT116 [1]", "value": 2350, "unit": "nM"},
      {"measurement": "efficacy", "setting": "HCT116 [2]", "value": -104, "unit": "%"}
    ]},
    {"smiles": "COC1=CC(c2cc3ccccc3[nH]2)=N/C1=C/c1[nH]c(C)cc1C", "note": "[Obatoclax]", "values": [
      {"measurement": "AC50 cell viability", "setting": "HCT116 [1]", "value": 1660, "unit": "nM"},
      {"measurement": "efficacy", "setting": "HCT116 [2]", "value": -90, "unit": "%"}
    ]},
    {"smiles": "CN(C)C/C=C/C(=O)Nc1ccc(C(=O)Nc2cccc(Nc3ncc(Cl)c(-c4c[nH]c5ccccc45)n3)c2)cc1", "note": "[THZ1]", "values": [
      {"measurement": "AC50 cell viability", "setting": "HCT116 [1]", "value": 66.1, "unit": "nM"},
      {"measurement": "efficacy", "setting": "HCT116 [2]", "value": -67.4, "unit": "%"}
    ]},
    {"smiles": "C=CCNC1=C2CC(C)CC(OC)C(O)C(C)/C=C(\\C)C(OC(N)=O)C(OC)/C=C/C=C(\\C)C(=O)NC(=CC1=O)C2=O", "note": "(stereo unspecified) [17-AAG (KOS953)]", "values": [
      {"measurement": "AC50 cell viability", "setting": "HCT116 [1]", "value": 417, "unit": "nM"},
      {"measurement": "efficacy", "setting": "HCT116 [2]", "value": -60.5, "unit": "%"}
    ]},
    {"smiles": "ONC(=O)C1=CC=C(C=C1)C/2=N/C3=CC=CC=C3OC4=C2C=CC=C4", "note": "[HDACi-01]", "values": [
      {"measurement": "AC50 cell viability", "setting": "HCT116 [1]", "value": 2950, "unit": "nM"},
      {"measurement": "efficacy", "setting": "HCT116 [2]", "value": -85.9, "unit": "%"}
    ]},
    {"smiles": "N=C(NCCCCCCNC(=N)NC(=N)Nc1ccc(Cl)cc1)NC(=N)Nc1ccc(Cl)cc1", "note": "[Chlorhexidine]", "values": [
      {"measurement": "AC50 cell viability", "setting": "HCT116 [1]", "value": 20900, "unit": "nM"},
      {"measurement": "efficacy", "setting": "HCT116 [2]", "value": -93.5, "unit": "%"}
    ]},
    {"smiles": "COc1ccc([S+](=O)([O-])N2CCc3cccc(-c4ccncc4)c32)cc1", "note": "[MPT-0B098]", "values": [
      {"measurement": "AC50 cell viability", "setting": "HCT116 [1]", "value": 417, "unit": "nM"},
      {"measurement": "efficacy", "setting": "HCT116 [2]", "value": -61.1, "unit": "%"}
    ]},
    {"smiles": "COc1cc2c(cc1OC(C)C)[C@H](c1ccc(Cl)cc1)N(c1ccc(N(C)C[C@H]3CC[C@H](N4CCN(C)C(=O)C4)CC3)cc1)C(=O)C2", "note": "[CGM-097]", "values": [
      {"measurement": "AC50 cell viability", "setting": "HCT116 [1]", "value": 14800, "unit": "nM"},
      {"measurement": "efficacy", "setting": "HCT116 [2]", "value": -123, "unit": "%"}
    ]},
    {"smiles": "N=C(N)NC(=N)NCCc1ccccc1", "note": "[Phenformin hydrochloride]", "values": [
      {"measurement": "AC50 cell viability", "setting": "HCT116 [1]", "value": 13200, "unit": "nM"},
      {"measurement": "efficacy", "setting": "HCT116 [2]", "value": -38.6, "unit": "%"}
    ]}
  ]
}
